According to ChEMBL document CHEMBL1127136, “Vinylogous vs arylogous isocephems” (1993):
Values after ≈ are worked out from the molar mass of the structure shown.

What was measured:
Enterobacteriaceae = test: Antibacterial activity against enterobacteriaceae was determined.; assay type: functional
Staphylococcus sp. = test: Antibacterial activity against staphylococci was determined.; assay type: functional

MIC (Enterobacteriaceae) [µg/mL]	MIC (Staphylococcus sp.) [µg/mL]	SMILES
1.5 (≈ 2.66 µM)	5 (≈ 8.87 µM)	CO/N=C(/C(=O)N[C@@H]1C(=O)N2C(C(=O)O)=C(/C=C/C=C/CSc3nnnn3C)SC[C@H]12)c1csc(N)n1
5.9 (≈ 10.4 µM)	6.3 (≈ 11.1 µM)	CO/N=C(/C(=O)N[C@@H]1C(=O)N2C(C(=O)[O-])=C(/C=C/c3ccc(C[n+]4ccccc4)o3)SC[C@H]12)c1csc(N)n1
0.2 (≈ 0.421 µM)	2.5 (≈ 5.27 µM)	CO/N=C(/C(=O)N[C@@H]1C(=O)N2C(C(=O)[O-])=C(C[n+]3ccccc3)SC[C@H]12)c1csc(N)n1
3.8 (≈ 6.52 µM)	3.1 (≈ 5.32 µM)	CO/N=C(/C(=O)N[C@@H]1C(=O)N2C(C(=O)[O-])=C(/C=C/c3ccc(C[n+]4ccccc4)s3)SC[C@H]12)c1csc(N)n1
7.3 (≈ 12.7 µM)	0.95 (≈ 1.65 µM)	CO/N=C(/C(=O)N[C@@H]1C(=O)N2C(C(=O)[O-])=C(/C=C/c3ccccc3C[n+]3ccccc3)SC[C@H]12)c1csc(N)n1
8 (≈ 13.9 µM)	2.5 (≈ 4.34 µM)	CO/N=C(/C(=O)N[C@@H]1C(=O)N2C(C(=O)[O-])=C(/C=C/c3cccc(C[n+]4ccccc4)c3)SC[C@H]12)c1csc(N)n1
3.9 (≈ 6.76 µM)	6.3 (≈ 10.9 µM)	CO/N=C(/C(=O)N[C@@H]1C(=O)N2C(C(=O)[O-])=C(/C=C/c3ccc(C[n+]4ccccc4)cc3)SC[C@H]12)c1csc(N)n1
0.4 (≈ 0.763 µM)	5 (≈ 9.53 µM)	CO/N=C(/C(=O)N[C@@H]1C(=O)N2C(C(=O)[O-])=C(/C=C/C#CC[n+]3ccccc3)SC[C@H]12)c1csc(N)n1
0.12 (≈ 0.226 µM)	0.76 (≈ 1.43 µM)	CO/N=C(/C(=O)N[C@@H]1C(=O)N2C(C(=O)[O-])=C(C[n+]3cccc4ccsc43)SC[C@H]12)c1csc(N)n1
0.19 (≈ 0.395 µM)	1.2 (≈ 2.5 µM)	CO/N=C(/C(=O)N[C@@H]1C(=O)N2C(C(=O)[O-])=C(/C=C/C[N+](C)(C)C)SC[C@H]12)c1csc(N)n1
1 (≈ 2.08 µM)	10 (≈ 20.8 µM)	CO/N=C(/C(=O)N[C@@H]1C(=O)N2C(C(=O)[O-])=C(/C=C\C[N+](C)(C)C)SC[C@H]12)c1csc(N)n1
0.03 (≈ 0.0539 µM)	0.12 (≈ 0.216 µM)	CO/N=C(/C(=O)N[C@@H]1C(=O)N2C(C(=O)[O-])=C(/C=C/C[n+]3cccc4ccsc43)SC[C@H]12)c1csc(N)n1
0.28 (≈ 0.616 µM)	10 (≈ 22 µM)	CO/N=C(/C(=O)N[C@@H]1C(=O)N2C(C(=O)[O-])=C(C[N+](C)(C)C)SC[C@H]12)c1csc(N)n1
0.12	0.38	CO/N=C(/C(=O)N[C@@H]1C(=O)N2C(C(=O)O)=C(/C=C/C=C/C[n+]3cccc4ccsc43)SC[C@H]12)c1csc(N)n1.O=C([O-])C(F)(F)F
0.3 (≈ 0.599 µM)	0.8 (≈ 1.6 µM)	CO/N=C(/C(=O)N[C@@H]1C(=O)N2C(C(=O)[O-])=C(/C=C/c3cc[n+](C)cc3)SC[C@H]12)c1csc(N)n1
0.14 (≈ 0.26 µM)	2.5 (≈ 4.65 µM)	CO/N=C(/C(=O)N[C@@H]1C(=O)N2C(C(=O)O)=C(/C=C/CSc3nnnn3C)SC[C@H]12)c1csc(N)n1
0.4 (≈ 0.782 µM)	15.9 (≈ 31.1 µM)	CO/N=C(/C(=O)N[C@@H]1C(=O)N2C(C(=O)O)=C(CSc3nnnn3C)SC[C@H]12)c1csc(N)n1
